Measured values taken from ChEMBL document CHEMBL5512598, “Current advances and development strategies of orally bioavailable PROTACs” (Eur J Med Chem, 2023).
Values belong to the molecule of their own block, whether it stands above or below them.

Tests used:
[1] = molecular target: von Hippel-Lindau disease tumor suppressor/Bromodomain-containing protein 9 (Homo sapiens, UniProt Q9H8M2+P40337); test: PROTAC activity at VHL/BRD9 in human HeLa cells assessed as induction of protein degradation […]; type: cell-based
von Hippel-Lindau disease tumor suppressor/Bromodomain-containing protein 9, sequence (Q9H8M2 whole entry): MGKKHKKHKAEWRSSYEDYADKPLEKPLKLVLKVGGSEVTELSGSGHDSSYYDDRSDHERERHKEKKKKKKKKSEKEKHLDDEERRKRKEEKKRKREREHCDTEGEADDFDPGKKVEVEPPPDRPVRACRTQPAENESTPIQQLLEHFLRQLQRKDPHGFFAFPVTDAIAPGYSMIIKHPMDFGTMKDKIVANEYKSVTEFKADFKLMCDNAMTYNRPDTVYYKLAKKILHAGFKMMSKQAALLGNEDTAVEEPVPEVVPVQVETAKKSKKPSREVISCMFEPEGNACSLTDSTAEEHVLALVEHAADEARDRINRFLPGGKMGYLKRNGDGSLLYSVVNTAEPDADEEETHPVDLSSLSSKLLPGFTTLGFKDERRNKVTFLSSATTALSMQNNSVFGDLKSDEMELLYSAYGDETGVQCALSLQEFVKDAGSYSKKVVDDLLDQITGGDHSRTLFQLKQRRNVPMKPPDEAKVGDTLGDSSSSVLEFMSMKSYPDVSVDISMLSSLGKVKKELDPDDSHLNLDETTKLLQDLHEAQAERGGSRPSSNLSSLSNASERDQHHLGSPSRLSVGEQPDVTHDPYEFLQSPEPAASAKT
von Hippel-Lindau disease tumor suppressor/Bromodomain-containing protein 9, sequence (P40337 whole entry): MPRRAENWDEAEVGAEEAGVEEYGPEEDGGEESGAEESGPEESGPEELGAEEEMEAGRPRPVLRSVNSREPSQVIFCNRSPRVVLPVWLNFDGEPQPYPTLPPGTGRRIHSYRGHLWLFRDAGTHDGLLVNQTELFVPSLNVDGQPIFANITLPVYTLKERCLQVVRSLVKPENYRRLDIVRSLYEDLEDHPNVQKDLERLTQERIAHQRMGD

[2] = Oral bioavailability in mouse; type: ADME, organism-based; conditions: in vivo
[3] = Half life in C57BL/6 mouse at 30 mg/kg, po by LC-MS/MS analysis; type: ADME, organism-based; conditions: in vivo
[4] = AUC (0 to t) in C57BL/6 mouse at 30 mg/kg, po by LC-MS/MS analysis; type: ADME, organism-based; conditions: in vivo
[5] = Tmax in C57BL/6 mouse at 30 mg/kg, po by LC-MS/MS analysis; type: ADME, organism-based; conditions: in vivo
[6] = Cmax in C57BL/6 mouse at 30 mg/kg, po by LC-MS/MS analysis; type: ADME, organism-based; conditions: in vivo
[7] = molecular target: von Hippel-Lindau disease tumor suppressor/Tyrosine-protein kinase BTK (Homo sapiens, UniProt Q06187+P40337, C481S); test: PROTAC activity at VHL/BTK C481S mutant in human TMD8 cells assessed as induction of BTK degradation incubated for 24 hrs by immunoblotting analysis; type: cell-based
von Hippel-Lindau disease tumor suppressor/Tyrosine-protein kinase BTK, sequence (P40337 whole entry, stated change not applied): as the sequence (P40337 whole entry) above
von Hippel-Lindau disease tumor suppressor/Tyrosine-protein kinase BTK, sequence (Q06187 2-659 C481S limits assumed, stated change not applied): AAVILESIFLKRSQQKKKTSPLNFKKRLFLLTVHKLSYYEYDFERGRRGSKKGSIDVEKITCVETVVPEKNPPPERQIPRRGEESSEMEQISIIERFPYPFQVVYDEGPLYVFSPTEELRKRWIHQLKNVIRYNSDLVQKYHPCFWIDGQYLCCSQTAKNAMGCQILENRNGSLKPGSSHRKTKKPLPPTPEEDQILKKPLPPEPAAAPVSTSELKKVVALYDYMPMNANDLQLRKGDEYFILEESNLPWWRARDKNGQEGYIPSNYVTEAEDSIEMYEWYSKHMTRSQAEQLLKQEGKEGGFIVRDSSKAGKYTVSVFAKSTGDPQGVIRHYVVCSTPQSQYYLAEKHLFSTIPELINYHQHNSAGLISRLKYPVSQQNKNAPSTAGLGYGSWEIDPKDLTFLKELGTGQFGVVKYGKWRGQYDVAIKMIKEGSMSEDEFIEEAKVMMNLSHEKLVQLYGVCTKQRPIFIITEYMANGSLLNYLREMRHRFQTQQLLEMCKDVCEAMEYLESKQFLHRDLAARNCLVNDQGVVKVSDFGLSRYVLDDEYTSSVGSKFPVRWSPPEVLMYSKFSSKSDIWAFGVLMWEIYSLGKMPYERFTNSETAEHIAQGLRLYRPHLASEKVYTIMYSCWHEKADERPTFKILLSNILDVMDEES

[8] = tested on: von Hippel-Lindau disease tumor suppressor/Tyrosine-protein kinase BTK (Homo sapiens), Q06187+P40337 [C481S]; test: PROTAC activity at VHL/BTK C481S mutant in human TMD8 cells assessed as maximum degradation of protein relative to control; type: cell-based
[9] = molecular target: T1, Protein cereblon/Tyrosine-protein kinase BTK (Homo sapiens, UniProt Q06187+Q96SW2, C481S); test: PROTAC activity at CRBN/BTK in human TMD8 cells assessed as protein degradation; type: cell-based
T1 sequence (Q06187 2-659 C481S limits assumed, stated change not applied): as above
T1 sequence (Q96SW2 whole entry, stated change not applied): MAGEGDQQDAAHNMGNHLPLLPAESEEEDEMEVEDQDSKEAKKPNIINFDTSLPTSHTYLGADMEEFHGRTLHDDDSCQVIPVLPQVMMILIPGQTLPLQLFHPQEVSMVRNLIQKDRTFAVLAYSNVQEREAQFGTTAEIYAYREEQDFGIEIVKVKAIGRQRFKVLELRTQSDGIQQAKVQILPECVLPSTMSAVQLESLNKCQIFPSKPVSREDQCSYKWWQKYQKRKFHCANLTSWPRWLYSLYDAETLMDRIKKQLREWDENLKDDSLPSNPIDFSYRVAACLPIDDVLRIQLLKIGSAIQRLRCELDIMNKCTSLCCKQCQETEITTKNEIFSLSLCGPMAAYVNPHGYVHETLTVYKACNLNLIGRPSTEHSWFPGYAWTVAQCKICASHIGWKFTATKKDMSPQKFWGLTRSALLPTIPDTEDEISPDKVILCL

[10] = tested on: Protein cereblon/Tyrosine-protein kinase BTK (Homo sapiens), Q06187+Q96SW2 [C481S]; test: PROTAC activity at CRBN/BTK in human TMD8 cells assessed as maximal protein degradation relative to control; type: cell-based
[11] = molecular target: von Hippel-Lindau disease tumor suppressor/Polycomb protein EED (Homo sapiens, UniProt O75530+P40337); test: PROTAC activity at VHL/EED in human DB cells assessed as degradation of EED protein expression incubated for 24 hrs by Western blotting analysis; type: cell-based
[12] = molecular target: von Hippel-Lindau disease tumor suppressor/Histone-lysine N-methyltransferase EZH2 (Homo sapiens, UniProt Q15910+P40337); test: PROTAC activity against VHL/wild type EZH2 in human DB cells assessed as degradation of EZH2 protein expression incubated for 24 hrs by Western blot analysis; type: cell-based
[13] = molecular target: von Hippel-Lindau disease tumor suppressor/Histone-lysine N-methyltransferase EZH2 (Homo sapiens, UniProt Q15910+P40337, Y641N); test: PROTAC activity against VHL/EZH2 Y641N mutant in human DB cells assessed as degradation of EZH2 protein expression incubated for 24 hrs by Western blot analysis; type: cell-based
von Hippel-Lindau disease tumor suppressor/Histone-lysine N-methyltransferase EZH2 (Homo sapiens, UniProt Q15910+P40337, Y641N), sequence (P40337 whole entry, stated change not applied): as the sequence (P40337 whole entry) above
von Hippel-Lindau disease tumor suppressor/Histone-lysine N-methyltransferase EZH2 (Homo sapiens, UniProt Q15910+P40337, Y641N), sequence (Q15910 whole entry Y641N, stated change not applied): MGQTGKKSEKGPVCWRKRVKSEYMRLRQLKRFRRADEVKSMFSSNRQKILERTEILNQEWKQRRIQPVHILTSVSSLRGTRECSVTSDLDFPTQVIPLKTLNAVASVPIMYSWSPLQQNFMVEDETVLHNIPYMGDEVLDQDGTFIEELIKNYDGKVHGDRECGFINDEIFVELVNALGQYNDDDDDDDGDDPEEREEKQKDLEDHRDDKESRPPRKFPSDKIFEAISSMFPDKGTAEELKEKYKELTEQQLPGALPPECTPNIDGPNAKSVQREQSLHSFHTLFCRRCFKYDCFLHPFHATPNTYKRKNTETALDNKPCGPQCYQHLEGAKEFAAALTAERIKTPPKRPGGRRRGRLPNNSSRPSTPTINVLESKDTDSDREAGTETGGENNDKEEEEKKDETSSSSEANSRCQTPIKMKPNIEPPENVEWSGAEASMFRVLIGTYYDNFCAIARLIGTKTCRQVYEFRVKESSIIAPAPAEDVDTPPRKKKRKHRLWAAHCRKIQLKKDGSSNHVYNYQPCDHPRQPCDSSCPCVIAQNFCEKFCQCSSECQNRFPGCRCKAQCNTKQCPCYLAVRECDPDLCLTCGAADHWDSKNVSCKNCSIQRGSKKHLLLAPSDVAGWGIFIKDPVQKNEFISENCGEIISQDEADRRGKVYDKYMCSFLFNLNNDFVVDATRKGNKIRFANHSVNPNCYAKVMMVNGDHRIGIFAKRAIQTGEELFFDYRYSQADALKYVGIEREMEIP

[14] = Cmax in CD-1 mouse plasma at 10 mg/kg, po by LC-MS/MS analysis; type: ADME, organism-based
[15] = AUC (0 to t) in CD-1 mouse at 10 mg/kg, po measured for 24 hrs by LC-MS/MS analysis; type: ADME, organism-based; conditions: in vivo
[16] = Half life in CD-1 mouse at 10 mg/kg, po measured for 24 hrs by LC-MS/MS analysis; type: ADME, organism-based; conditions: in vivo
[17] = Oral bioavailability in ICR mouse at 5 mg/kg by LC-MS/SM analysis; type: ADME, organism-based; conditions: in vivo
Cytochrome P450 2D6 = Cytochrome P450 2D6 (Homo sapiens, UniProt P10635); test: Inhibition of CYP2D6 (unknown origin); type: ADME
Cytochrome P450 2D6, sequence (P10635 whole entry): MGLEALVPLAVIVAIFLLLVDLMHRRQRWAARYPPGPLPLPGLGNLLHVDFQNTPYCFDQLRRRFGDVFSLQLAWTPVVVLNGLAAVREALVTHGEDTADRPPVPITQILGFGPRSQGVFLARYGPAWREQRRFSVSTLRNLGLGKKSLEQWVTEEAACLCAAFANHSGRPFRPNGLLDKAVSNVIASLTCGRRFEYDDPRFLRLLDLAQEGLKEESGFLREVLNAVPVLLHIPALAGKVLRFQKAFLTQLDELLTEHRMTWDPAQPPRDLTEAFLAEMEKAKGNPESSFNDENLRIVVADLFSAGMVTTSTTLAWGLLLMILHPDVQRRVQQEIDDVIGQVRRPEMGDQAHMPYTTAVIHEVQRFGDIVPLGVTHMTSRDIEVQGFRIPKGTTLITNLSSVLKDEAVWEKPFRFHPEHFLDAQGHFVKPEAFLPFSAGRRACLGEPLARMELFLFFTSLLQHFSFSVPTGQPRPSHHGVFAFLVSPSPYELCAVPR

Cytochrome P450 3A4 = Cytochrome P450 3A4 (Homo sapiens, UniProt P08684); test: Inhibition of CYP3A4 (unknown origin); type: ADME
Cytochrome P450 3A4, sequence (P08684 whole entry): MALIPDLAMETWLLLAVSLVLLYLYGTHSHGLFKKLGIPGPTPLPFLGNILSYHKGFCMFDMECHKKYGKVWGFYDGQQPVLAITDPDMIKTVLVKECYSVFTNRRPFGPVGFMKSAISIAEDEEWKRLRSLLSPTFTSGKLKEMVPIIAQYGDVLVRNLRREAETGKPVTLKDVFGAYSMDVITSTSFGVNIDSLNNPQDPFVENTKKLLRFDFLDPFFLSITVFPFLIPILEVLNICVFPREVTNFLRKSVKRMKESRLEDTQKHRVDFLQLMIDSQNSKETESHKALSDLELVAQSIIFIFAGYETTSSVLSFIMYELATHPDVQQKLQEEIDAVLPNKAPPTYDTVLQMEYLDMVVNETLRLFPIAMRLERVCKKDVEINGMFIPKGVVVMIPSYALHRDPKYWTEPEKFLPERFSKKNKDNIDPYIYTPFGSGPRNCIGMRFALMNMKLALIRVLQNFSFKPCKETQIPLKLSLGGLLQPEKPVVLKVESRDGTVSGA

[18] = Clearance in mouse at 10 mg/kg, po measured upto 24 hrs by LC-MS/MS analysis; type: ADME, organism-based; conditions: in vivo
[19] = molecular target: Voltage-gated inwardly rectifying potassium channel KCNH2 (Homo sapiens, UniProt Q12809); test: Inhibition of hERG (unknown origin); type: toxicity
[20] = Oral bioavailability in Sprague-Dawley rat at 5 mg/kg incubated for 24 hrs by LC-MS/MS analysis; type: ADME, organism-based; conditions: in vivo
Cytochrome P450 2C19 = Cytochrome P450 2C19 (Homo sapiens, UniProt P33261); test: Inhibition of CYP2C19 (unknown origin); type: ADME
[21] = Clearance in Sprague-Dawley rat at 0.5 mg/kg, iv; type: ADME, organism-based; conditions: in vivo
[22] = molecular target: T2, Protein cereblon/Tyrosine-protein kinase BTK (Homo sapiens, UniProt Q06187+Q96SW2); test: PROTAC activity at CRBN/BTK in human TMD8 cells assessed as maximal degradation of BTK protein incubated for 24 hrs by immunoblotting analysis relative to control; type: cell-based
[23] = Cmax in mouse at 10 mg/kg, po measured upto 24 hrs by LC-MS/MS analysis; type: ADME, organism-based; conditions: in vivo
[24] = molecular target: T1, Protein cereblon/Tyrosine-protein kinase BTK; test: PROTAC activity at CRBN/BTK C481S mutant in human TMD8 cells assessed as degradation of BTK protein incubated for 4 hrs by HTRF assay; type: cell-based
[25] = molecular target: T2, Protein cereblon/Tyrosine-protein kinase BTK; test: PROTAC activity at CRBN/BTK in human TMD8 cells assessed as induction of BTK degradation incubated for 24 hrs by immunoblotting analysis; type: cell-based

Compound: CN1CCN([C@@H]2CCCN(c3cnc(C(N)=O)c(Nc4ccc(C5CCN(C(=O)CCOCCNc6cccc7c6C(=O)N(C6CCC(=O)NC6=O)C7=O)CC5)cc4)n3)C2)C1=O (stereo partly specified)
DC50 [7]: 7 nM
Emax [8]: 86%

Compound: Cc1ncsc1-c1ccc(CNC(=O)[C@@H]2C[C@@H](O)CN2C(=O)[C@@H](NC(=O)[C@H]2C[C@@H](NC(=O)c3ccc(-c4cnc(NCc5ccco5)n5cnnc45)cc3)C2)C(C)(C)C)cc1
DC50 [11]: 111 nM
DC50 [12]: 275 nM
DC50 [13]: 275 nM

Compound: NC(=O)c1ncc(N2CCCCC2)nc1Nc1ccc(C2CCN(C[C@@H]3CCN(c4ccc5c(c4)C(=O)N(C4CCC(=O)NC4=O)C5=O)C3)CC2)cc1 (stereo partly specified)
Emax [22]: 86%
Cmax [23]: 1300 nM
bioavailability [2]: 8%
DC50 [24]: 13 nM
DC50 [25]: 4.5 nM

Compound: Cc1ncsc1-c1ccc(CNC(=O)[C@@H]2C[C@@H](O)CN2C(=O)[C@@H](NC(=O)CCCNC(=O)c2ccc(-c3cnc(NCc4ccco4)n4cnnc34)cc2)C(C)(C)C)cc1
DC50 [13]: 670 nM

More lines, main results first:

DC50 [1]: 5 nM
bioavailability [2]: < 1%
Compound: COc1cc(-c2cn(C)c(=O)c3[nH]ncc23)cc(OC)c1CN1CCN(C(=O)CN2CCC(c3ccc(NC4CCC(=O)NC4=O)cc3)CC2)CC1 (stereo unspecified)

half-life [3]: 5.1 h
AUC(0-t) [4]: 5000 ng·h/mL
Tmax [5]: 8 h
Cmax [6]: 470 ng/mL
Compound: Cc1ncsc1-c1ccc(CNC(=O)[C@@H]2C[C@@H](O)CN2C(=O)[C@@H](NC(=O)CCCCCCCCCCNC(=O)OC2C[C@@H](C)C=C3C=C[C@H](C)[C@H](CC[C@@H]4C[C@H](O)CC(=O)O4)[C@H]32)C(C)(C)C)cc1 (stereo partly specified)

DC50 [9]: 0.5 nM
Emax [10]: 96%
Compound: CN1CCN([C@@H]2CCCN(c3cnc(C(N)=O)c(Nc4ccc(C5CCN(C[C@@H]6CCN(c7ccc8c(c7)C(=O)N(C7CCC(=O)NC7=O)C8=O)C6)CC5)cc4)n3)C2)C1=O (stereo partly specified)

Cmax [14]: 3680 ng/mL
AUC(0-t) at 24 h [15]: 19700 ng·h/mL
half-life [16]: 2.08 h
Compound: COc1cc(N2CCC(N3CCN(CCC#Cc4cccc5c4CN(C4CCC(=O)NC4=O)C5=O)CC3)CC2)ccc1Nc1ncc(Cl)c(Nc2ccccc2P(C)(C)=O)n1 (stereo unspecified)

bioavailability [17]: 100%
DC50 [1]: 11 nM
IC50 (Cytochrome P450 2D6): > 30000 nM
IC50 (Cytochrome P450 3A4): 5600 nM
CL/F [18]: 30 mL/min/kg
bioavailability [20]: 48%
IC50 (Cytochrome P450 2C19): 1900 nM
clearance [21]: 74 mL/min/kg
Compound: COc1cc(-c2cn(C)c(=O)c3cnccc23)cc(Cl)c1CN1CCC(C2CCN(C(=O)c3ccc(NC4CCC(=O)NC4=O)cc3C(F)(F)F)CC2)CC1 (stereo unspecified)
IC50 [19]: 7500 nM
